Where two headings read alike, the source gives them in different places.
How the values were obtained:
SK-MEL-28 = assay: Inhibition of cells growth by colorimetric assay (SRB), SK-MEL-28; format: cell-based; conditions: for GI50 / CC50: Homo sapiens, SK-MEL-28, 48 h; for GI50: read-out: MEL-28 GI50
Method in brief: (§1)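 Human cancer and endothelial lines are seeded at 5×10^3 cells per well and, after 18 h, treated for 48 h with compound dissolved in DMSO/EtOH/PBS (0.5:0.5:99) at 10 to 10^−8 μg/ml. Cell mass is quantified by SRB staining (OD 490 nm), and growth inhibition, total growth inhibition and cell kill are calculated from triplicate wells.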

A-549 = assay: Inhibition of cells growth by colorimetric assay (SRB), A-549; format: cell-based; conditions: for GI50 / LC50 (concentration for 50% cell killing): Homo sapiens, A549, 48 h; for GI50: read-out: A-549 GI50
Method in brief: as §1

A-498 = assay: Inhibition of cells growth by colorimetric assay (SRB), A-498; format: cell-based; conditions: for A-498 TGI / GI50: 48 hours exposure; for LC50 / GI50: Homo sapiens; for LC50: A498, 48 h, read-out: A-498 LC50; for GI50: A498, read-out: A-498 GI50
Protocol: (§2) 2°.—Inhibition of Cells Growth by Colorimetric Assay.
(§3) A colorimetric type of assay, using sulforhodamine B (SRB) reaction has been adapted for a quantitative measurement of cell growth and viability [following the technique described by Philip Skehan, et al. (1990), New colorimetric cytotoxicity assay for anticancer drug screening, J. Natl. Cancer Inst., 82:1107-1112]
(§4) This form of the assay employs 96 well cell culture microplates of 9 mm diameter (Faircloth, 1988; Mosmann, 1983). Most of the cell lines are obtained from American Type Culture Collection (ATCC) derived from different human cancer types.
(§5) Cells are maintained in RPMI 1640 10% FBS, supplemented with 0.1 g/l penicillin and 0.1 g/l streptomycin sulfate and then incubated at 37° C., 5% CO2 and 98% humidity. For the experiments, cells were harvested from subconfluent cultures using trypsin and resuspended in fresh medium before plating.
(§6) Cells are seeded in 96 well microtiter plates, at 5×10^3 cells per well in aliquots of 195 μl medium, and they are allowed to attach to the plate surface by growing in drug free medium for 18 hours. Afterward, samples are added in aliquots of 5 μl in a ranging from 10 to 10^−8 μg/ml, dissolved in DMSO/EtOH/PBS (0.5:0.5:99). After 48 hours exposure, the antitumor effect are measured by the SRB methodology: cells are fixed by adding 50 μl of cold 50% (wt/vol) trichloroacetic acid (TCA) and incubating for 60 minutes at 4° C. Plates are washed with deionized water and dried. One hundred μl of SRB solution (0.4% wt/vol in 1% acetic acid) is added to each microtiter well and incubated for 10 minutes at room temperature. Unbound SRB is removed by washing with 1% acetic acid. Plates are air dried and bound stain is solubilized with Tris buffer. Optical densities are read on a automated spectrophotometric plate reader at a single wavelength of 490 nm.
(§7) The values for mean+/−SD of data from triplicate wells are calculated. Some parameters for cellular responses can be calculated: GI=growth inhibition, TGI=total growth inhibition (cytostatic effect) and LC=cell killing (cytotoxic effect).
(§8) Obtained results may predict the usefulness of a certain drug as a potential cancer treatment. For this technique, compounds which show GI50 values smaller than 10 μg/ml are selected to continue with further studies. GI50's data allow to predict that not only could a drug be cystostatic, but also it could have a potential in terms of tumor reduction.

HT-29 = assay: Inhibition of cells growth by colorimetric assay (SRB), HT-29; format: cell-based; conditions: for GI50 / LC50 (concentration for 50% cell killing): Homo sapiens, HT-29, 48 h; for GI50: read-out: HT-29 GI50
Method in brief: as §1

DU-145 = assay: Inhibition of cells growth by colorimetric assay (SRB), DU-145; format: cell-based; conditions: for GI50 / CC50: Homo sapiens, DU-145, 48 h; for GI50: read-out: DU-145 GI50
Method in brief: as §1

MCF-7 = assay: Inhibition of cells growth by colorimetric assay (SRB), MCF-7; format: cell-based; conditions: for CC50 / GI50: Homo sapiens; for CC50: read-out: MCF LC50; for GI50: read-out: MCF GI50
Protocol: as §2, §3, §4, §5, §6, §7, §8

SW620 = assay: Inhibition of cells growth by colorimetric assay (SRB), SW620; format: cell-based; conditions: for LC50 / GI50: Homo sapiens; for LC50: read-out: SW-620 LC50; for GI50: read-out: SW-620 GI50
Protocol: as §2, §3, §4, §5, §6, §7, §8

MDA-MB-231 = assay: Inhibition of cells growth by colorimetric assay (SRB), MDA-MB-231; format: cell-based; conditions: for CC50 / GI50: Homo sapiens; for CC50: MDA-MB-231, 48 h, read-out: MB-231 LC50; for GI50: MDA-MB-231, read-out: MB-231 GI50; for GI50 / MB-231 TGI: 48 hours exposure
Protocol: as §2, §3, §4, §5, §6, §7, §8

[1] = read-out: MEL-28 LC50, SRB assay, 48 hours exposure
[2] = read-out: A-549 LC50, SRB assay, 48 hours exposure
[3] = read-out: HT-29 LC50, SRB assay, 48 hours exposure
[4] = read-out: DU-145 LC50, SRB assay, 48 hours exposure

Source text for Heart: (§9) Toxicity was asssessed by the methods reported in Toxicology in Vitro, 15 (2001) 571-577, J. Luber Narod et al.: “Evaluation of the use of in vitro methodolodies as tools for screening new compounds for potential in vivo toxicity”.
Source text for Kidney: as §9
Source text for Liver: as §9
Source text for Myelo: as §9
Source text for Skeletal: as §9

COc1cc2c(cc1O)CCN[C@]21CS[C@@H]2c3c(OC(C)=O)c(C)c4c(c3[C@H](COC1=O)N1C2[C@H]2c3c(cc(C)c(OC)c3OC(=O)OC(C)(C)C)C[C@@H]([C@@H]1O)N2C)OCO4 (stereo partly drawn) [Compound 97]
Toxicity Data Skeletal (Skeletal): 4.62E-09
GI50 (SK-MEL-28; MEL-28, SRB, 48 hours exposure): 0.348 nM
CC50 (SK-MEL-28; read-out: MEL-28 LC50, MEL-28, SRB, 48 hours exposure): 3.48 nM
MEL-28 TGI (SK-MEL-28; MEL-28, SRB, 48 hours exposure): 9.28E-10
A-549 TGI (A-549; A-549, SRB, 48 hours exposure): 9.28E-10
GI50 (A-549; A-549, SRB, 48 hours exposure): 0.348 nM
LC50 (concentration for 50% cell killing) (A-549; read-out: A-549 LC50, A-549, SRB, 48 hours exposure): 3.48 nM
A-498 TGI (A-498; A-498, SRB): 2.32E-09
LC50 (A-498): 9.28 nM
GI50 (A-498; A-498, SRB): 0.58 nM
HT-29 TGI (HT-29; HT-29, SRB, 48 hours exposure): 2.32E-09
GI50 (HT-29): 0.928 nM
LC50 (concentration for 50% cell killing) (HT-29; read-out: HT-29 LC50, HT-29, SRB, 48 hours exposure): 9.28 nM
DU-145 TGI (DU-145; DU-145, SRB, 48 hours exposure): 3.48E-10
GI50 (DU-145; DU-145, SRB, 48 hours exposure): 0.232 nM
CC50 (DU-145; read-out: DU-145 LC50, DU-145, SRB, 48 hours exposure): 0.928 nM
Toxicity Data Kidney (Kidney): 1.43E-08
Toxicity Data Myelo (Myelo): 1.77E-08
CC50 (MCF-7; MCF7, 48 h): 11.6 nM
GI50 (MCF-7; MCF7, MCF, SRB, 48 hours exposure): 1.16 nM
MCF TGI (MCF-7; MCF, SRB, 48 hours exposure): 3.48E-09
LC50 (SW620; SW-620, 48 h): 9.28 nM
GI50 (SW620; SW-620, SRB, 48 hours exposure): 0.58 nM
SW-620 TGI (SW620; SW-620, SRB, 48 hours exposure): 2.32E-09
Toxicity Data Liver (Liver): 1.57E-08
CC50 (MDA-MB-231): 34.8 nM
GI50 (MDA-MB-231; MB-231, SRB): 0.348 nM
MB-231 TGI (MDA-MB-231; MB-231, SRB): 6.96E-10
Toxicity Data Heart (Heart): 9.63E-08

COc1cc2c(cc1OC(=O)OC(C)(C)C)CCN[C@]21CS[C@@H]2c3c(OC(=O)OC(C)(C)C)c(C)c4c(c3[C@H](COC1=O)N1C2[C@H]2c3c(cc(C)c(OC)c3O)C[C@@H]([C@@H]1O)N2C)OCO4 (stereo partly drawn) [Compound 173]
Toxicity Data Skeletal (Skeletal): 2.49E-06
GI50 (SK-MEL-28; SRB assay, 48 hours exposure): 2.17 nM
CC50 (SK-MEL-28; [1]): 10.9 nM
MEL-28 TGI (SK-MEL-28; SRB assay, 48 hours exposure): 5.43E-09
GI50 (A-549): 3.26 nM
LC50 (concentration for 50% cell killing) (A-549; [2]): 10.9 nM
A-549 TGI (A-549; SRB assay, 48 hours exposure): 4.35E-09
LC50 (A-498): 21.7 nM
GI50 (A-498; SRB assay): 2.17 nM
A-498 TGI (A-498; SRB assay): 4.35E-09
GI50 (HT-29; SRB assay, 48 hours exposure): 2.17 nM
LC50 (concentration for 50% cell killing) (HT-29; [3]): 9.78 nM
HT-29 TGI (HT-29; SRB assay, 48 hours exposure): 6.52E-09
GI50 (DU-145; SRB assay, 48 hours exposure): 1.09 nM
CC50 (DU-145; [4]): 3.26 nM
DU-145 TGI (DU-145; SRB assay, 48 hours exposure): 2.17E-09
Toxicity Data Kidney (Kidney): 7.09E-08
Toxicity Data Myelo (Myelo): 4.98E-06
GI50 (MCF-7; MCF7, 48 h): 3.26 nM
CC50 (MCF-7; MCF7, 48 h): 109 nM
MCF TGI (MCF-7; SRB assay, 48 hours exposure): 9.78E-09
GI50 (SW620; SW-620, 48 h): 3.26 nM
LC50 (SW620; SW-620, 48 h): 21.7 nM
SW-620 TGI (SW620; SRB assay, 48 hours exposure): 6.52E-09
Toxicity Data Liver (Liver): 4.03E-08
CC50 (MDA-MB-231): 21.7 nM
GI50 (MDA-MB-231; SRB assay): 2.17 nM
MB-231 TGI (MDA-MB-231; SRB assay): 7.61E-09
Toxicity Data Heart (Heart): 1.19E-07

COc1cc2c(cc1O)CCN[C@]21CS[C@@H]2c3c(OC)c(C)c4c(c3[C@H](COC1=O)N1C2[C@H]2c3c(cc(C)c(OC)c3O)C[C@@H]([C@@H]1O)N2C)OCO4 (stereo partly drawn) [Compound 182]
Toxicity Data Skeletal (Skeletal): 1.49E-08
GI50 (SK-MEL-28; SRB assay, 48 hours exposure): 0.409 nM
CC50 (SK-MEL-28; [1]): 5.45 nM
MEL-28 TGI (SK-MEL-28; SRB assay, 48 hours exposure): 1.36E-09
GI50 (A-549; SRB assay, 48 hours exposure): 0.409 nM
LC50 (concentration for 50% cell killing) (A-549; [2]): 68.1 nM
A-549 TGI (A-549; SRB assay, 48 hours exposure): 1.36E-09
LC50 (A-498): 5.45 nM
GI50 (A-498; SRB assay): 0.409 nM
A-498 TGI (A-498; SRB assay): 1.36E-09
GI50 (HT-29; SRB assay, 48 hours exposure): 0.272 nM
LC50 (concentration for 50% cell killing) (HT-29; [3]): 1.36 nM
HT-29 TGI (HT-29; SRB assay, 48 hours exposure): 1.09E-09
GI50 (DU-145; SRB assay, 48 hours exposure): 0.272 nM
CC50 (DU-145; [4]): 1.09 nM
DU-145 TGI (DU-145; SRB assay, 48 hours exposure): 4.09E-10
Toxicity Data Kidney (Kidney): 1.26E-08
Toxicity Data Myelo (Myelo): 3.19E-08
CC50 (MCF-7; MCF7, 48 h): 13.6 nM
GI50 (MCF-7; MCF7, SRB assay, 48 hours exposure): 2.72 nM
MCF TGI (MCF-7; SRB assay, 48 hours exposure): 5.45E-09
GI50 (SW620; SW-620, 48 h): 1.09 nM
LC50 (SW620; SW-620, 48 h): 13.6 nM
SW-620 TGI (SW620; SRB assay, 48 hours exposure): 4.09E-09
Toxicity Data Liver (Liver): 3.98E-09
CC50 (MDA-MB-231): 8.17 nM
GI50 (MDA-MB-231; SRB assay): 0.272 nM
MB-231 TGI (MDA-MB-231; SRB assay): 6.81E-10
Toxicity Data Heart (Heart): 3.95E-08
